From PubChem BioAssay AID488788 (Broad Institute, 2010)
Records with an inconclusive call do not appear. Calls of active or inactive are those of the source. How the calls were made is not given here.

molecular target: CAAX prenyl protease 2 (Saccharomyces cerevisiae (strain ATCC 204508 / S288c)) (UniProt Q03530); assay: Rce1p protease inhibitors, dose response, biochemical, plate reader, cherry-pick (AID 488788); conditions: Rce1p enzyme activity
Sequence (Q03530 whole entry, looked up): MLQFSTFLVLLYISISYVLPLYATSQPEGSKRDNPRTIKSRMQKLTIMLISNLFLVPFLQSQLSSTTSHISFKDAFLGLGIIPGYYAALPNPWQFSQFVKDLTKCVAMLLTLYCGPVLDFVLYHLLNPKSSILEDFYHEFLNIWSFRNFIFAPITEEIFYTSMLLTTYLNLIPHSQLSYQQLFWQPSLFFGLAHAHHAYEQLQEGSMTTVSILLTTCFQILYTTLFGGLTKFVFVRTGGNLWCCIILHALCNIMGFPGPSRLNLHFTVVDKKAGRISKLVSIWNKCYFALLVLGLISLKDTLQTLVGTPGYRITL

Row | SMILES | AC50
1 | COC(C/C=C\C(=O)[C@H](C)OCc1ccccc1)OC | > 10 µM (inactive)

same assay, conditions: Rce1p enzyme activity, at 10 µM (top of the series)

Row | SMILES | activity change, negative = inhibition
2 | CC(=O)c1c(O)cc(O)c(C(C)=O)c1O | inactive
3 | C=CCc1cccc(/C=N/NC(=O)COc2ccc(-n3cnnn3)cc2)c1O | inactive
4 | Cc1cccc(NC(=O)c2cc(S(=O)(=O)N3CCCCC3)c[nH]2)c1C | inactive
5 | Cc1cc(C(=O)N[C@H](c2ccccc2)[C@@]2(C)C[C@@H]2[C@@H](C)C(=O)Nc2ccc3ccccc3c2)n(C)n1 | inactive
6 | C=CCn1c(N2CCCCCC2)nc2c1c(=O)n(C)c(=O)n2C | inactive
7 | CCN(Cc1ccccc1)c1ccc(/C=N/N=C(N)N)cc1 | inactive
8 | Cc1ccc(S(=O)(=O)CC(=O)N2CCN(c3ccccc3F)CC2)cc1 | inactive
9 | CC1=CC2=NC(=O)CC(C)(C(=O)N(CC(=O)NC3CCCC3)Cc3ccccc3)N2C=C1 (stereo not given) | inactive
10 | CCOC(=O)C[C@H]1c2ccccc2S(=O)(=O)N1Cc1cc(OC)c(OC)c(OC)c1 | inactive
11 | CCOc1ccc(-n2ccnc(SCC(=O)NC3CCCC3)c2=O)cc1 | inactive
12 | CSc1nc(NCC(C)O)c2c3c(sc2n1)CN(C)CC3 (stereo not given) | inactive
13 | COc1ccc2[nH]c(C(=O)NCCCn3ccnc3)cc2c1 | inactive
14 | COc1ccc(/C=N/NC(=O)c2ccc(Cl)cc2)cc1COC(C)=O | inactive
15 | c1ccc(CCCN2CCN(CCOC(c3ccccc3)c3ccccc3)CC2)cc1 | inactive
16 | CCOc1ccc(C2C(C#N)=C(N)Oc3c2c(=O)oc2ccccc32)cc1 (stereo not given) | inactive
17 | CCCCCCCCNC(C)C(O)c1ccc(SC(C)C)cc1 (stereo not given) | inactive
18 | O=C(Nc1cc(S(=O)(=O)N2CCOCC2)ccc1N1CCCC1)c1cnccn1 | inactive
19 | CCOc1ccc(OCC)c(NC(=O)c2nnn(CC(=O)Nc3cc(C)cc(C)c3)c2N)c1 | inactive
20 | Cc1cc(C)n2nc(CC(=O)NNC(=O)c3ccc(N(C)C)cc3)nc2n1 | inactive
21 | COc1ccccc1NC(=O)CN(c1ccc(C23CC4CC(CC(C4)C2)C3)cc1)S(C)(=O)=O | inactive
22 | Cc1cc(Br)ccc1NC(=O)c1cnc(N2CCN(c3ccccn3)CC2)c2ccccc12 | inactive
23 | CSc1ccc(C(=O)C2CCCN(C(=O)c3cccnc3SC)C2)cc1 (stereo not given) | inactive
24 | Cc1ccnc(-n2c(-c3ccco3)nc3ccccc3c2=O)c1 | inactive
25 | CCN(C(=O)COC(=O)c1cc(-c2cccs2)nc2ccccc12)C1CCS(=O)(=O)C1 (stereo not given) | inactive
26 | CC(=O)N[C@@H](C)c1nc2ccccc2n1CCCN1CCN(c2nc(-c3ccc(C)cc3)cs2)CC1 | inactive

Row | SMILES | activity change, negative = inhibition
27 | COC(=O)c1sccc1NC(=O)CSc1nnnn1-c1ccccc1C | inactive
28 | CC(=O)c1c(C)[nH]c(C(=O)OCc2ccc(Br)cc2)c1C | inactive
29 | NC(=O)[C@@H]1CC2(CC(c3cccc(NC(=O)CC(c4ccccc4)c4ccccc4)c3)=NO2)CN1C(=O)c1ccc(Cl)cc1 (stereo not given in full) | inactive
30 | COc1ccccc1N1CCN(C(=O)c2coc(=O)c(Br)c2)CC1 | inactive
31 | O=[N+]([O-])c1cc(S(=O)(=O)N2CCCC2)ccc1NN=C1CCCCC1 | inactive
32 | CN(C)c1ccc(/C=N/NC(=O)C(O)c2ccc(Br)cc2)cc1 (stereo not given) | inactive
33 | CC(C)CNC(=O)Nc1ccc(F)c(Cl)c1 | inactive
34 | CCOc1ccc(N(CC(=O)NC2CC3CCC2C3)S(=O)(=O)c2ccccc2)cc1 (stereo not given) | inactive
35 | CC(=O)N1c2ccc([N+](=O)[O-])cc2NC(=O)CC1C (stereo not given) | inactive
36 | CC(=O)Nc1ccc(Cl)cc1C1COC(=O)C1=N (stereo not given) | inactive
37 | CCCCOC(=O)Nc1nc(C)c(C(=O)OCC)s1 | inactive
38 | Oc1ccc(-c2nc3ccccn3c2NCc2ccco2)cc1 | inactive
39 | O=S(=O)(c1ccccc1)c1cnn2c(C(F)(F)F)cc(-c3ccc(F)cc3)nc12 | inactive
40 | O=C1C(Cc2c[nH]c3ccccc23)NC(=S)N1Cc1ccccc1 (stereo not given) | inactive
41 | N#CC(/C(=N/S(=O)(=O)c1cccs1)c1ccccc1)c1nc2ccccc2[nH]1 (stereo not given) | inactive
42 | CC(C)NCC(O)COCCOc1ccc(Br)cc1 (stereo not given) | inactive
43 | FC(F)(F)c1cc(Oc2ccccc2)ncc1-c1nnc(-c2ccccc2Cl)o1 | inactive
44 | COc1cc(OC)cc(-c2ncc3ccccn23)c1 | inactive
45 | O=C(COc1ncnc2cc([N+](=O)[O-])ccc12)NC(=O)NC1CCCCC1 | inactive
46 | CC(C)N1CCN(S(=O)(=O)c2ccc3ccccc3c2)CC1 | inactive
47 | CCn1cc(C(=O)N[C@H](C)c2ccccc2)c(=O)c2cc(F)c(N3CCN(C)CC3)cc21 | inactive
48 | COc1ccc(-n2c(N)c(C(=O)NCc3ccco3)c3nc4ccccc4nc32)c(OC)c1 | inactive
49 | O=C(Nc1ccccc1)n1ccc(-c2ccc(-n3ccnc3)cc2)n1 | inactive
50 | C/C=C(/C)C(=O)O[C@H]1[C@@H](O)c2c(ccc3ccc(=O)oc23)OC1(C)C | inactive
51 | O=C(Nc1cccc2ncccc12)c1cccnc1 | inactive

Row | SMILES | activity change, negative = inhibition
52 | CC(Oc1ccc2c3c(c(=O)oc2c1)CCCC3)C(=O)NC1CC(C)(C)NC(C)(C)C1 (stereo not given) | inactive
53 | O=C1CN(C(=O)NCC(=O)N2CCCC2)c2ccccc2N1 | inactive
54 | CCOC(=O)c1c(-c2ccccc2)oc2ccc(OCC(O)CNCCN(C)C)cc12 (stereo not given) | inactive
55 | CC(=O)NN1C(=O)c2ccccc2NC1c1ccccc1 (stereo not given) | inactive
56 | COc1ccccc1C1=NN(C2=NN=C(N)Cc3ncnn32)C(O)(C(F)(F)F)C1 (stereo not given) | inactive
57 | CCc1ccc(NC(=O)c2cnc(N3CCN(c4ccccn4)CC3)c3ccccc23)cc1 | inactive
58 | C=CC[N+]1(C)CC[C@]23c4c5ccc(O)c4O[C@H]2C(=O)CC[C@@]3(O)[C@H]1C5 (stereo not given in full) | inactive
59 | CCOc1cc(-c2nc3c(C)cccn3c2NCC2CCCO2)ccc1O (stereo not given) | inactive
60 | Cc1c(C)c2ccc(OC(C)C(=O)NCCCN3CCOCC3)c(C)c2oc1=O (stereo not given) | inactive
61 | OC1CCN(C(c2ccc3ncccc3c2)c2nnnn2C2CCCCC2)CC1 (stereo not given) | inactive
62 | CCOC(=O)c1cc(C)[nH]c(=O)c1C#N | inactive
63 | COc1ccc(-c2c(-c3ccsc3)oc3ccc(N4CCOCC4)cc23)cn1 | inactive
64 | CN(C)CC(C)(C)CNC(=S)NCc1ccc2c(c1)OCO2 | inactive
65 | C=CCNc1oc(/C=C/c2ccccc2)nc1C#N | inactive
66 | COC(=O)c1ccc(-c2ccc(CNCC(O)c3ccccc3)o2)cc1 (stereo not given) | inactive
67 | CC1=NN(c2ccccc2)C(=O)/C1=C\c1ccc(Br)s1 | inactive
68 | CC1CCc2c(sc(NC(=O)COC(=O)c3ccccc3NCc3ccco3)c2C#N)C1 (stereo not given) | inactive
69 | Cc1ccc(S(=O)(=O)c2cn(C)c3cc(N4CCOCC4)c(F)cc3c2=O)cc1 | inactive
70 | O=C(C1=C[C@@H](C2CC2)C[C@@H](OCc2ccc(CO)cc2)O1)N1CCN(Cc2ccccc2)CC1 | inactive
71 | O=S(=O)(CC(CN1CCOCC1)N1CCOCC1)c1ccccc1 (stereo not given) | inactive
72 | COCCNc1nc(N)c([N+](=O)[O-])c(N2CCCCCC2)n1 | inactive
73 | CCOCc1cc(C)[nH]c(=O)c1C#N | inactive
74 | COCCN1C(=O)/C(=C/c2ccc(Oc3ccc([N+](=O)[O-])cn3)c(OC)c2)SC1=Nc1ccccc1 | inactive
75 | Cc1nc2c(C)cccn2c(=O)c1NC(=O)COc1ccccc1 | inactive
